Measurements as given in patent US4994476A, “Dihydropyridin-3,5-dicarboxylates incorporating aryloxypropanolamine moieties” (Bristol-Myers Company, priority 1985, dated 1991).
Structures can show the parent of a compound that is named as a salt. Where two headings read alike, the source gives them in different places.

Assays:
rat dorsal aorta = biological target: T1, rat dorsal aorta (Rattus norvegicus, UniProt P22002); experiment: Calcium blockade in rat dorsal aorta (calcium activity in smooth muscle); assay type: cell-based; details: for Calcium (pA2): negative logarithm of molar concentration giving dose ratio of 2; for Kb: negative logarithm of molar concentration giving dose ratio of 2, read-out: Calcium (pA2) (converted)
T1 construct: from tissue; host or cells: rat dorsal aorta (smooth muscle)
T1 sequence (P22002 whole entry): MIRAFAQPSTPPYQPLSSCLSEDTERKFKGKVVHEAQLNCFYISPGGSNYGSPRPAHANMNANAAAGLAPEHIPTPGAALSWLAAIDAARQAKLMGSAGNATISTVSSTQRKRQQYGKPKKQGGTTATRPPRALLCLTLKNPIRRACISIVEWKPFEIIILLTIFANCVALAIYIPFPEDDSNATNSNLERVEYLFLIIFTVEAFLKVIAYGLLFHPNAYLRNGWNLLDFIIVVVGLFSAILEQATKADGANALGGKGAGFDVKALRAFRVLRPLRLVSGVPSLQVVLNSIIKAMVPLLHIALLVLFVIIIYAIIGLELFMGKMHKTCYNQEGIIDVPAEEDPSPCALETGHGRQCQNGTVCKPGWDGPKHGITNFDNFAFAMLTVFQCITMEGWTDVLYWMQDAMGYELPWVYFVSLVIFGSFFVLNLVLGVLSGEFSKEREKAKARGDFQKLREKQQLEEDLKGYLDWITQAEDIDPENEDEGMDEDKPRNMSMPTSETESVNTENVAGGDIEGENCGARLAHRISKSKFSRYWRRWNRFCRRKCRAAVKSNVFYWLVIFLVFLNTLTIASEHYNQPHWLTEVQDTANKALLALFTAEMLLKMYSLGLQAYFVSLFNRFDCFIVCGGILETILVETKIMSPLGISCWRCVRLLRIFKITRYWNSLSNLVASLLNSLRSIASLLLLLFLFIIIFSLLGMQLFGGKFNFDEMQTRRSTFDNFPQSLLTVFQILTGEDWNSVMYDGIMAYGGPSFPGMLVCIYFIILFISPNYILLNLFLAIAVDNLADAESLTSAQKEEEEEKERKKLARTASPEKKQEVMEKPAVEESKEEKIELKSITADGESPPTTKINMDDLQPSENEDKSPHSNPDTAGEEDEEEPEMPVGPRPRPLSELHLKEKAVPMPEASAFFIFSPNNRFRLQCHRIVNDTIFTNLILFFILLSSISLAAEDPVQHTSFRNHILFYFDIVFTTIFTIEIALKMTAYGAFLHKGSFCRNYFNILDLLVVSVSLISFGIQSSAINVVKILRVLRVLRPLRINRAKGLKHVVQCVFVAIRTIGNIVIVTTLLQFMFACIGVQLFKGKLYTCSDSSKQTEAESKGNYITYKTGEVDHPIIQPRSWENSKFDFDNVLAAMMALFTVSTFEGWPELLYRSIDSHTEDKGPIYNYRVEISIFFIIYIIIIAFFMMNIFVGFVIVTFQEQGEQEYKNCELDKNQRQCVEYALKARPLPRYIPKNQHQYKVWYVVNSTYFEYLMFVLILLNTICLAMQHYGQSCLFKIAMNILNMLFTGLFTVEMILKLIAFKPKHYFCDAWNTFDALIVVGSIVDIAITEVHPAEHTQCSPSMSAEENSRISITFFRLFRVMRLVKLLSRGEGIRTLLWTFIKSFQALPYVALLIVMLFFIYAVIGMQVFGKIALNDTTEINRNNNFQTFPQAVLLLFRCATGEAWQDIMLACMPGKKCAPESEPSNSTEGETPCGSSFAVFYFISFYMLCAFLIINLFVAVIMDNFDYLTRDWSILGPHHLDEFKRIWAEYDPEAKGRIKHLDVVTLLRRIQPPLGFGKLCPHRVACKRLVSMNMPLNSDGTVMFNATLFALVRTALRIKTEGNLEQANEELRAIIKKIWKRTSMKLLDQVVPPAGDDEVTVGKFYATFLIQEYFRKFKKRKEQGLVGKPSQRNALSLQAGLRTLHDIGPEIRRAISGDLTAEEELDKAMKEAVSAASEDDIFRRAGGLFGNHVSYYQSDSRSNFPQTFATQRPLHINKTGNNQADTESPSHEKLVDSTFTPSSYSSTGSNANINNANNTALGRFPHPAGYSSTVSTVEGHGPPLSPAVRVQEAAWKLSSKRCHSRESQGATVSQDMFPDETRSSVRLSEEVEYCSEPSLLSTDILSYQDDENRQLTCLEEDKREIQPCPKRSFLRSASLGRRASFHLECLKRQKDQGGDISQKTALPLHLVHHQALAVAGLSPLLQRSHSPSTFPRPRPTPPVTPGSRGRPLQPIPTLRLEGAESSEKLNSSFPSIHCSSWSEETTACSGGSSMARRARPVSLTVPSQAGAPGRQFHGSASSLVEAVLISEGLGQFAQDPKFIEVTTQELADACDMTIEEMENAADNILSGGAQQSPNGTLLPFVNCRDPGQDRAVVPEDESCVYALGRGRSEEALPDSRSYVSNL
T1 sequence (P54290 25-944 partner limits assumed): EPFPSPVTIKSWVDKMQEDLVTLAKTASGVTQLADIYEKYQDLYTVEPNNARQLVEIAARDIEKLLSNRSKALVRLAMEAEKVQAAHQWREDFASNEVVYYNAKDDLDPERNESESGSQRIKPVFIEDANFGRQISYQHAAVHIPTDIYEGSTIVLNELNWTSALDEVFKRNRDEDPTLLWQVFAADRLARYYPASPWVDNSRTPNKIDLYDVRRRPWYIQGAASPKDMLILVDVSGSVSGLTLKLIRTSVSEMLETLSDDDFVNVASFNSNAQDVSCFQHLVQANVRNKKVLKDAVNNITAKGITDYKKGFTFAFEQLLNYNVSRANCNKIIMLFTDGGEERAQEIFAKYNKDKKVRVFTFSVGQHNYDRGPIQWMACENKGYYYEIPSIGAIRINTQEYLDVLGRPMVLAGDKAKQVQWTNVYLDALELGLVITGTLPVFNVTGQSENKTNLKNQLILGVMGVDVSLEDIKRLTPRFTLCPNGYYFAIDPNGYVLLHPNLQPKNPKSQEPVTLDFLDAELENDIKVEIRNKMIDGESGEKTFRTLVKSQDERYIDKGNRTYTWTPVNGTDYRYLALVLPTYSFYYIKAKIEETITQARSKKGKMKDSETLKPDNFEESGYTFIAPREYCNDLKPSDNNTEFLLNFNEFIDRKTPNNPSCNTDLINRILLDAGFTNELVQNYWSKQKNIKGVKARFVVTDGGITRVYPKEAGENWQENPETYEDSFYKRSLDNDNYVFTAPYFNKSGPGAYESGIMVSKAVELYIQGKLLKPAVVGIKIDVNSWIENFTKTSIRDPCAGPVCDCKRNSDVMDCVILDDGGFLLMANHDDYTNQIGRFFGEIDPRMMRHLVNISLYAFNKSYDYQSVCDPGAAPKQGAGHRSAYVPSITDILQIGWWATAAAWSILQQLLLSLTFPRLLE
T1 sequence (P54290 945-1091 partner limits assumed): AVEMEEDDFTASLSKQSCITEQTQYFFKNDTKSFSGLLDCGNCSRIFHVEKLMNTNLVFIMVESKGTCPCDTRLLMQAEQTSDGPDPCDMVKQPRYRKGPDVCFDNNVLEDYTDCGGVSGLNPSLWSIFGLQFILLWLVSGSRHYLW
Procedure: (§1) Evaluation of these pharmacological properties was affected by means of both in vitro and in vivo biological screens. In vitro screening included calcium activity in various smooth muscle systems such as rat dorsal aorta, portal vein, and trachea; effects on blood platelets, β-binding affinities which were determined in rat heart and lung. […] The in vivo testing included vasodilating results in the ganglion-blocked, angiotensin-II supported rat and antihypertensive screening in the spontaneous hypertensive rat (SHR) or DOCA salt rats.

β-Receptor = biological target: T2, β-Receptor (Rattus norvegicus, UniProt P18090); experiment: β-Receptor binding in animal heart tissue
T2 construct: from tissue; host or cells: rat heart
T2 sequence (P18090 whole entry): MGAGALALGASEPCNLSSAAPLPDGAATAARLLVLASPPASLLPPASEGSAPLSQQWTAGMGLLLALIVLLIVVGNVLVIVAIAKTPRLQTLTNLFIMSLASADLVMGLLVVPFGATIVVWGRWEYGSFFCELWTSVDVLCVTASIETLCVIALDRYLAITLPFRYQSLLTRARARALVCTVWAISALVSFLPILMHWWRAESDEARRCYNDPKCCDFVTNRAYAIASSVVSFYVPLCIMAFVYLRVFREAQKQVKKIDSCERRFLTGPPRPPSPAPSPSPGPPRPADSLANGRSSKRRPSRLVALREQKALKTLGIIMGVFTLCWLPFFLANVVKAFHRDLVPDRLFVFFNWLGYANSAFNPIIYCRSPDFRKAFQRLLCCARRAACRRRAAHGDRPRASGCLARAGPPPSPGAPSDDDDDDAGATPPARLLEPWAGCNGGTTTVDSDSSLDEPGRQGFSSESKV
Procedure: as §1

[1] = tested on: mean arterial blood pressure, ganglion-blocked, angiotensin-II supported rat; experiment: Vasodilation in the angiotensin-supported ganglion-blocked rat; assay type: in vivo
Procedure: as §1

[2] = animal heart tissue, read-out: β Binding (IC50)
[3] = Rattus norvegicus, 0.5 h, 30 minutes after dosing, read-out: Vasodilation, % reduction in mean arterial blood pressure

Question: Which “Calcium (pA2)” value (rat dorsal aorta) does the source give for `COC(=O)C1=C(C)NC(C)=C(C(=O)OCCCNCC(O)COc2cccc3c2C[C@H](O)[C@H](O)C3)C1c1cccc([N+](=O)[O-])c1` (relative stereo) [Example 64] here?
Answer: 7.3

Question: For `COC(=O)C1=C(C)NC(C)=C(C(=O)OCC(C)(C)NCC(O)COc2ccccc2C#N)C1c1cccc([N+](=O)[O-])c1` (stereo not drawn) [Example 29], which Kb (rat dorsal aorta) is on record?
Answer: 6.31 nM

Question: What about the IC50 (β-Receptor; [2]) of the same compound?
Answer: 20 nM

Question: And the inhibition in vivo at 1 mg/kg [1, 3]?
Answer: 52%

Question: With `CCC1=C(C(=O)OCC(C)(C)NCC(O)COc2ccccc2C#N)C(c2cccc([N+](=O)[O-])c2)C(C(=O)OC)=C(C)N1` (stereo not drawn) [Example 30] as the compound, how does the Kb (rat dorsal aorta) read?
Answer: 3.98 nM

Question: And the IC50 (β-Receptor; [2])?
Answer: 200 nM

Question: And the inhibition in vivo at 1 mg/kg [1, 3]?
Answer: 50%

Question: How did the IC50 (β-Receptor; [2]) turn out when `COC(=O)C1=C(C)NC(C(C)C)=C(C(=O)OCC(C)(C)NCC(O)COc2ccccc2C#N)C1c1cccc([N+](=O)[O-])c1` (stereo not drawn) [Example 31] was run?
Answer: 800 nM

Question: And the inhibition in vivo at 1 mg/kg [1, 3]?
Answer: 9%

Question: For `COC(=O)C1=C(C)NC(c2ccccc2)=C(C(=O)OCC(C)(C)NCC(O)COc2ccccc2C#N)C1c1cccc([N+](=O)[O-])c1` (stereo not drawn) [Example 32], which IC50 (β-Receptor; [2]) is on record?
Answer: 300 nM

Question: What about the inhibition in vivo at 10 mg/kg ([1]; Rattus norvegicus, 0.5 h, 30 minutes after dosing, at 10 mg/kg, read-out: Vasodilation, % reduction in mean arterial blood pressure) of the same compound?
Answer: 22%

Question: For `COC(=O)C1=C(C)NC(c2cccs2)=C(C(=O)OCC(C)(C)NCC(O)COc2ccccc2C#N)C1c1cccc([N+](=O)[O-])c1` (stereo not drawn) [Example 33], which IC50 (β-Receptor; [2]) is on record?
Answer: 70 nM

Question: And the inhibition in vivo at 1 mg/kg [1, 3]?
Answer: 12%

Question: What does the source list for `CCC1=C(C(=O)OCCNCC(O)COc2ccccc2C#N)C(c2cccc([N+](=O)[O-])c2)C(C(=O)OC)=C(C)N1` (stereo not drawn) [Example 34]?
Answer: Kb (rat dorsal aorta): 12.6 nM; IC50 (β-Receptor; [2]): 6000 nM; inhibition in vivo at 1 mg/kg [1, 3]: 17%

Question: Which results are given for `CCC1=C(C(=O)OCCCNCC(O)COc2ccccc2C#N)C(c2cccc([N+](=O)[O-])c2)C(C(=O)OC)=C(C)N1` (stereo not drawn) [Example 35]?
Answer: IC50 (β-Receptor; [2]): 200 nM; inhibition in vivo at 1 mg/kg [1, 3]: 28%

Question: With `CCC1=C(C(=O)OCC(C)(C)NCC(O)COc2ccccc2C)C(c2cccc([N+](=O)[O-])c2)C(C(=O)OC)=C(C)N1` (stereo not drawn) [Example 37] as the compound, how does the inhibition in vivo at 1 mg/kg [1, 3] read?
Answer: 58%

Question: With `CCC1=C(C(=O)OCC(C)(C)NCC(O)COc2ccccc2Br)C(c2cccc([N+](=O)[O-])c2)C(C(=O)OC)=C(C)N1` (stereo not drawn) [Example 38] as the compound, how does the IC50 (β-Receptor; [2]) read?
Answer: 180 nM

Question: And the inhibition in vivo at 1 mg/kg [1, 3]?
Answer: 55%

Question: For `CCC1=C(C(=O)OCC(C)(C)NCC(O)COc2ccc(CCOC)cc2)C(c2cccc([N+](=O)[O-])c2)C(C(=O)OC)=C(C)N1` (stereo not drawn) [Example 39], which Kb (rat dorsal aorta) is on record?
Answer: 1.58 nM

Question: And the IC50 (β-Receptor; [2])?
Answer: 400 nM

Question: And the inhibition in vivo at 1 mg/kg [1, 3]?
Answer: 54%

Question: For `CCOC(=O)C1=C(C)NC(C)=C(C(=O)OCCCNCC(O)COc2ccccc2C)C1c1cccc([N+](=O)[O-])c1` (stereo not drawn) [Example 40], which Kb (rat dorsal aorta) is on record?
Answer: 20 nM

Question: And the inhibition in vivo at 1 mg/kg [1, 3]?
Answer: 36%

Question: What does the source list for `COC(=O)C1=C(C)NC(C)=C(C(=O)OCCCNCC(O)COc2cccc(C)c2)C1c1cccc([N+](=O)[O-])c1` (stereo not drawn) [Example 41]?
Answer: Kb (rat dorsal aorta): 6.31 nM; inhibition in vivo at 1 mg/kg [1, 3]: 28%

Question: Which results are given for `COC(=O)C1=C(C)NC(C)=C(C(=O)OCCCNCC(O)COc2ccc(F)cc2C)C1c1cccc([N+](=O)[O-])c1` (stereo not drawn) [Example 42]?
Answer: Kb (rat dorsal aorta): 3.98 nM; inhibition in vivo at 1 mg/kg [1, 3]: 39%

Question: Which Kb (rat dorsal aorta) does the source give for `CCOC(=O)C1=C(C)NC(C)=C(C(=O)OCCCNCC(O)COc2ccccc2C#N)C1c1cccc([N+](=O)[O-])c1` (stereo not drawn) [Example 43] here?
Answer: 6.31 nM

Question: Which results are given for `COC(=O)C1=C(C)NC(C)=C(C(=O)OCCCNCC(O)COc2ccccc2C)C1c1cccc([N+](=O)[O-])c1` (stereo not drawn) [Example 44, Methyl [3-[[3-(2-Methylphenoxy)-2-hydroxypropyl]-amino]propyl]1,4-Dihydro-2,6-dimethyl-4-(3-nitrophenyl)-3,5-pyridinedicarboxylate Hydrochloride]?
Answer: Kb (rat dorsal aorta): 10 to 15.8 nM; IC50 (β-Receptor; [2]): 10 nM; inhibition in vivo at 1 mg/kg [1, 3]: 28%

Question: Which Kb (rat dorsal aorta) does the source give for `CCC1=C(C(=O)OCC(C)(C)NCC(O)COc2ccc(CC(N)=O)cc2)C(c2cccc([N+](=O)[O-])c2)C(C(=O)OC)=C(C)N1` (stereo not drawn) [Example 45, [2-[3-[4-(Aminocarbonyl)methyl]phenoxy]-2-hydroxypropyl]amino]-2,2-dimethylethyl]^3 Methyl^5 2-Ethyl-1,4-dihydro-6-methyl-4-(3-nitrophenyl)-3,5-pyridinedicarboxylate Hemihydrate] here?
Answer: 6.31 nM

Question: What about the IC50 (β-Receptor; [2]) of the same compound?
Answer: 420 nM

Question: What about the inhibition in vivo at 1 mg/kg [1, 3] of the same compound?
Answer: 33%

Question: Which Kb (rat dorsal aorta) does the source give for `COC(=O)C1=C(C)NC(C)=C(C(=O)OCCNC(=S)NCCNCC(O)COc2ccccc2C)C1c1cccc([N+](=O)[O-])c1` (stereo not drawn) [Example 46] here?
Answer: 251 nM

Question: What about the inhibition in vivo at 1 mg/kg [1, 3] of the same compound?
Answer: 22%

Question: Which results are given for `CCOC(=O)C1=C(C)NC(C)=C(C(=O)OCCc2ccc(OCC(O)CNC(C)C)cc2)C1c1cccc([N+](=O)[O-])c1` (stereo not drawn) [Example 54, Ethyl [2-[4-[3-[2-Hydroxy.(1-methylethyl)-amino]propoxy]phenyl]ethyl]1,4-Dihydro-2,6-dimethyl-4-(3-nitrophenyl)-3,5-pyridine dicarboxylate Hydrochloride Hydrate]?
Answer: Kb (rat dorsal aorta): 12.6 nM; IC50 (β-Receptor; [2]): 100 nM; inhibition in vivo at 1 mg/kg [1, 3]: 57%

Question: Which results are given for `CCOC(=O)C1=C(C)NC(C)=C(C(=O)OCCc2ccc(OCC(O)CNC(C)(C)C)cc2)C1c1cccc([N+](=O)[O-])c1` (stereo not drawn) [Example 55, Ethyl [2-[4-[3-[(1,1-dimethylethyl)amino]-2-hydroxypropoxy]phenyl]ethyl]1,4-Dihydro-2,6-dimethyl-4-(3-nitrophenyl)-3,5-pyridinedicarboxylate Hydrochloride Hemihydrate]?
Answer: Kb (rat dorsal aorta): 12.6 nM; Lethality in vasodilation test ([1]; 1.0 mg/kg): Lethal at 1.0 mg/kg

Question: With `CCOC(=O)C1=C(C)NC(C)=C(C(=O)OCCCC(=O)Nc2ccc(OCC(O)CNC(C)C)cc2)C1c1cccc([N+](=O)[O-])c1` (stereo not drawn) [Example 56, Ethyl [3-[[[4-[2-Hydroxy-3-[(1-methylethyl)amino]-propoxy]phenyl]amino]carbonyl]propyl]1,4-Dihydro-2,6-dimethyl-4-(3-nitrophenyl)-3,5-pyridinedicarboxylateHydrate] as the compound, how does the Kb (rat dorsal aorta) read?
Answer: 10 nM

Question: What about the IC50 (β-Receptor; [2]) of the same compound?
Answer: 620 nM

Question: Which results are given for `CCC1=C(C(=O)OCC(C)(C)NC(=O)Cc2ccc(OCC(O)CNC(C)C)cc2)C(c2cccc([N+](=O)[O-])c2)C(C(=O)OC)=C(C)N1` (stereo not drawn) [Example 57, [2-[4-[2-Hydroxy-3-[(1-methylethyl)amino]propoxy]-phenyl]methyl]carbonyI]amino]-2,2-dimethylethyl]^3 Methyl^5 2-Ethyl-1,4-dihydro-6-methyl-4-(3-nitrophenyl)-3,5-pyridinedicarboxylate Hemihydrate]?
Answer: Kb (rat dorsal aorta): 50.1 nM; IC50 (β-Receptor; [2]): > 1000 nM; inhibition in vivo at 1 mg/kg [1, 3]: 11%

Question: For `COC(=O)C1=C(C)NC(C)=C(C(=O)OCCCNCC(O)COc2cccc3ccccc23)C1c1cccc([N+](=O)[O-])c1` (stereo not drawn) [Example 59], which “Calcium (pA2)” value (rat dorsal aorta) is on record?
Answer: 7.3

Question: With `COC(=O)C1=C(C)NC(C)=C(C(=O)OCCCNCC(O)COc2ccccc2C(F)(F)F)C1c1cccc([N+](=O)[O-])c1` (stereo not drawn) [Example 60] as the compound, how does the “Calcium (pA2)” value (rat dorsal aorta) read?
Answer: 7.2

Question: With `COC(=O)C1=C(C)NC(C)=C(C(=O)OCCCNCC(O)COc2ccccc2C2CCCCC2)C1c1cccc([N+](=O)[O-])c1` (stereo not drawn) [Example 61] as the compound, how does the “Calcium (pA2)” value (rat dorsal aorta) read?
Answer: 7.6

Question: For `C=CCc1ccccc1OCC(O)CNCCCOC(=O)C1=C(C)NC(C)=C(C(=O)OC)C1c1cccc([N+](=O)[O-])c1` (stereo not drawn) [Example 62], which “Calcium (pA2)” value (rat dorsal aorta) is on record?
Answer: 7.4

Question: Which “Calcium (pA2)” value (rat dorsal aorta) does the source give for `COC(=O)C1=C(C)NC(C)=C(C(=O)OCCCNCC(O)COc2cccc3c2CCCC3=O)C1c1cccc([N+](=O)[O-])c1` (stereo not drawn) [Example 63] here?
Answer: 8.8

Question: Which IC50 (β-Receptor) does the source give for `COC(=O)C1=C(C)NC(C)=C(C(=O)OC)C1c1ccccc1[N+](=O)[O-]` [Nifedipine, reference compound] here?
Answer: > 1000 nM

Question: What about the inhibition in vivo at 0.1 mg/kg ([1]; Rattus norvegicus, 0.5 h, 30 minutes after dosing, at 0.1 mg/kg, read-out: Vasodilation, % reduction in mean arterial blood pressure) of the same compound?
Answer: 23%

Question: How did the IC50 (β-Receptor; [2]) turn out when `CC(=O)Nc1ccc(OCC(O)CNC(C)C)cc1` (stereo not drawn) [Practolol, reference compound] was run?
Answer: 1000 nM
